Reference: ChEMBL document CHEMBL6109114, “Design, synthesis, and biological evaluation of 4-(2-fluorophenoxy)pyridine derivatives as novel FLT3-ITD inhibitors” (Eur J Med Chem, 2025)
Calls of active or inactive are those of the source. No cut-off for these calls is given here.

Columns and labels:
NCI-H441 = assay: Antiproliferative activity against non-FLT3 expressing human NCI-H441 cells assessed as inhibition of cell growth measured after 3 days by celltiter-glo luminescent cell viability assay; assay type: functional, cell-based; conditions: NCI-H441, 72 h
[1] = target: Mast/stem cell growth factor receptor Kit (Homo sapiens) (UniProt P10721); assay: Inhibition of human c-Kit at 1 uM by Eurofins-DiscoverX assay
Chain of Mast/stem cell growth factor receptor Kit (Homo sapiens) (P10721 whole entry): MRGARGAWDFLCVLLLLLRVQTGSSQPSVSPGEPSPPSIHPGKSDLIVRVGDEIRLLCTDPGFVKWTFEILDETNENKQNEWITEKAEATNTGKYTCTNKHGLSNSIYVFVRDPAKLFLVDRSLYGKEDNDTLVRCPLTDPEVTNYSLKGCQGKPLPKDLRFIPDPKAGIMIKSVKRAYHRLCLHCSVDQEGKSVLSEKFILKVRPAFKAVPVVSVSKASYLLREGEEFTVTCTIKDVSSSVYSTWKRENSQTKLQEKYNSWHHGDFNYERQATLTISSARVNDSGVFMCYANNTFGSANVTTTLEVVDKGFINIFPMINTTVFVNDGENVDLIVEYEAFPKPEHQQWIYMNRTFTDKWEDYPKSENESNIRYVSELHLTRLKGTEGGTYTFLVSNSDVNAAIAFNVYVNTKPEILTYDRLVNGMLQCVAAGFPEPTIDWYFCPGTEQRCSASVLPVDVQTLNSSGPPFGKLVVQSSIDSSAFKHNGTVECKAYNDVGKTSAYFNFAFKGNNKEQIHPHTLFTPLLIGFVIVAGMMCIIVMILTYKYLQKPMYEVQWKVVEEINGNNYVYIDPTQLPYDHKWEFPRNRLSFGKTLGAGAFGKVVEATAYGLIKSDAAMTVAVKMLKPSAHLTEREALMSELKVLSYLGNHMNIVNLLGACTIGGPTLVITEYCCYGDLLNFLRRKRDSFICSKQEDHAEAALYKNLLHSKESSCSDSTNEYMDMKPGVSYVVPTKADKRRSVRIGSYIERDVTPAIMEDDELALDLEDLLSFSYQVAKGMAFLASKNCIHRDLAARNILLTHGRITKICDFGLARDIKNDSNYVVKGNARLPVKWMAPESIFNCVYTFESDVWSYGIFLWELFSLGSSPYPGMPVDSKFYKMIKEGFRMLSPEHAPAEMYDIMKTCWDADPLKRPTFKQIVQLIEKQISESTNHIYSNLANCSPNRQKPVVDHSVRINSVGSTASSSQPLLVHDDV

MOLM-14 = assay: Antiproliferative activity against human MOLM-14 cells harbouring FLT3-ITD assessed as inhibition of cell growth measured after 3 days by celltiter-glo luminescent cell viability assay; assay type: functional, cell-based; conditions: MOLM-14, 72 h
MOLM-13 [2] = assay: Induction of apoptosis in human MOLM-13 cells assessed as late apoptotic cells at 0.1 uM incubated for 48 hrs by Annexin V-FITC/PI staining based flow cytometry analysis (reference value: 3.10%); assay type: functional
BaF3 [3] = assay: Antiproliferative activity against mouse BaF3 cells harbouring TEL-KIT assessed as inhibition of cell growth measured after 3 days by celltiter-glo luminescent cell viability assay; assay type: functional, cell-based; conditions: BaF3, 72 h
[4] = Metabolic stability in Sprague-Dawley rat liver microsomes assessed as intrinsic clearance at 1 uM measured up to 60 mins in presence of NADPH regenerating system by LC-MS/MS analysis; assay type: ADME, Microsome; conditions: read-out: CLH
MOLM-13 [5] = assay: Induction of apoptosis in human MOLM-13 cells assessed as necrotic cells at 1 uM incubated for 48 hrs by Annexin V-FITC/PI staining based flow cytometry analysis (reference value: 0.077%); assay type: functional
MOLM-13 [6] = assay: Induction of apoptosis in human MOLM-13 cells assessed as necrotic cells at 0.3 uM incubated for 48 hrs by Annexin V-FITC/PI staining based flow cytometry analysis (reference value: 0.077%); assay type: functional
MOLM-13 [7] = assay: Induction of cell cycle arrest in human MOLM-13 cells assessed as accumulation of cells at S phase at 1 uM incubated for 48 hrs (reference value: 41.6%); assay type: functional
MOLM-13 [8] = assay: Induction of apoptosis in human MOLM-13 cells assessed as early apoptotic cells at 0.1 uM incubated for 48 hrs by Annexin V-FITC/PI staining based flow cytometry analysis (reference value: 4.93%); assay type: functional
[9] = target: Cyclin-dependent kinase 2/cyclin A (Homo sapiens) (UniProt P24941+P20248+P78396); assay: Inhibition of human CDK2/CyclinA at 1 uM by Eurofins-DiscoverX assay; assay type: protein-complex assay
[10] = Metabolic stability in human liver microsomes assessed as parent compound remaining at 1 uM measured after 60 mins by LC-MS/MS analysis; assay type: ADME, Microsome; conditions: read-out: Stability
BaF3 [11] = assay: Antiproliferative activity against wild type mouse BaF3 cells assessed as inhibition of cell growth measured after 3 days by celltiter-glo luminescent cell viability assay; assay type: functional, cell-based; conditions: BaF3, 72 h
BaF3 [12] = assay: Antiproliferative activity against mouse BaF3 cells harbouring FLT3-ITD assessed as inhibition of cell growth measured after 3 days by celltiter-glo luminescent cell viability assay; assay type: functional, cell-based; conditions: BaF3, 72 h
Jurkat = assay: Antiproliferative activity against non-FLT3 expressing human Jurkat cells assessed as inhibition of cell growth measured after 3 days by celltiter-glo luminescent cell viability assay; assay type: functional, cell-based; conditions: 72 h
[13] = AUC (0 to infinity) in mouse at 10 mg/kg, po; assay type: ADME, organism-based; conditions: in vivo
[14] = Metabolic stability in Beagle dog liver microsomes assessed as parent compound remaining at 1 uM measured after 60 mins in presence of NADPH regenerating system by LC-MS/MS analysis; assay type: ADME, Canis lupus familiaris, Microsome; conditions: read-out: Stability
[15] = target: Voltage-gated inwardly rectifying potassium channel KCNH2 (Homo sapiens, UniProt Q12809); assay: Inhibition of human ERG expressed in CHO cells by Qpatch assay; assay type: toxicity, cell-based
Chain of Voltage-gated inwardly rectifying potassium channel KCNH2 (Q12809 whole entry): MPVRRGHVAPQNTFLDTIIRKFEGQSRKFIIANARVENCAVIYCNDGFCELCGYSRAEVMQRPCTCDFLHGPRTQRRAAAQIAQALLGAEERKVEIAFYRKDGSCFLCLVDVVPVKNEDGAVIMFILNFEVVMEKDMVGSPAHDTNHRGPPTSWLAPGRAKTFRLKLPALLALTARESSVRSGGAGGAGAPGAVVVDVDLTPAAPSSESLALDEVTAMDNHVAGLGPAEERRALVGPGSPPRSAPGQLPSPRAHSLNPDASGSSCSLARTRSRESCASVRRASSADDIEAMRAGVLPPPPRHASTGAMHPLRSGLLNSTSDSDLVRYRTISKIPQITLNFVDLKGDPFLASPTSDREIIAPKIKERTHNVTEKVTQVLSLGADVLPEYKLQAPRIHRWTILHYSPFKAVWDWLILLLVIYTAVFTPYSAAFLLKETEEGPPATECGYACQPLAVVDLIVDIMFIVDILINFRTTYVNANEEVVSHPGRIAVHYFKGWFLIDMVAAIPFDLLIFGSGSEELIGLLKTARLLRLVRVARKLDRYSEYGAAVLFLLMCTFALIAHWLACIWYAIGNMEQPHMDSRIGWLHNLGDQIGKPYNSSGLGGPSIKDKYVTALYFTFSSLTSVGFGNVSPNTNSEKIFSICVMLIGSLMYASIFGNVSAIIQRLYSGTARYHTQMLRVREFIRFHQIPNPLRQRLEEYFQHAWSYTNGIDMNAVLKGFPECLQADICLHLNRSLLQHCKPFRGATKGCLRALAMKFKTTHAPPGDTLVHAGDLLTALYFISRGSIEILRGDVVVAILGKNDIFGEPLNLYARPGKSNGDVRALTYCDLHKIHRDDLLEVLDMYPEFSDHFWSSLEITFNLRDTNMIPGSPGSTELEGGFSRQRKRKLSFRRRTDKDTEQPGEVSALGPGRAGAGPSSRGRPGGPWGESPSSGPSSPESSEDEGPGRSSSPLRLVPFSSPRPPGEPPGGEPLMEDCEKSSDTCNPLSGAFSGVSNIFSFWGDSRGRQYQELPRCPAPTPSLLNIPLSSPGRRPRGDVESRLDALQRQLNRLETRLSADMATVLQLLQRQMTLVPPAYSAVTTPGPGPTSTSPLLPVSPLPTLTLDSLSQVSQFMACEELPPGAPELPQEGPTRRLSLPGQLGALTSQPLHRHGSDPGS

BaF3 [16] = assay: Antiproliferative activity against mouse BaF3 cells harbouring FLT3-ITD-D835Y mutant assessed as inhibition of cell growth measured after 3 days by celltiter-glo luminescent cell viability assay; assay type: functional, cell-based; conditions: BaF3, 72 h
[17] = target: Vascular endothelial growth factor receptor 2 (Homo sapiens, UniProt P35968); assay: Inhibition of VEGFR2 (unknown origin) using Fluorescein-Poly GT as substrate preincubated for 10 mins followed by substrate addition and measured after 30 mins in presence of ATP by mobility shift assay
Chain of Vascular endothelial growth factor receptor 2 (P35968 whole entry): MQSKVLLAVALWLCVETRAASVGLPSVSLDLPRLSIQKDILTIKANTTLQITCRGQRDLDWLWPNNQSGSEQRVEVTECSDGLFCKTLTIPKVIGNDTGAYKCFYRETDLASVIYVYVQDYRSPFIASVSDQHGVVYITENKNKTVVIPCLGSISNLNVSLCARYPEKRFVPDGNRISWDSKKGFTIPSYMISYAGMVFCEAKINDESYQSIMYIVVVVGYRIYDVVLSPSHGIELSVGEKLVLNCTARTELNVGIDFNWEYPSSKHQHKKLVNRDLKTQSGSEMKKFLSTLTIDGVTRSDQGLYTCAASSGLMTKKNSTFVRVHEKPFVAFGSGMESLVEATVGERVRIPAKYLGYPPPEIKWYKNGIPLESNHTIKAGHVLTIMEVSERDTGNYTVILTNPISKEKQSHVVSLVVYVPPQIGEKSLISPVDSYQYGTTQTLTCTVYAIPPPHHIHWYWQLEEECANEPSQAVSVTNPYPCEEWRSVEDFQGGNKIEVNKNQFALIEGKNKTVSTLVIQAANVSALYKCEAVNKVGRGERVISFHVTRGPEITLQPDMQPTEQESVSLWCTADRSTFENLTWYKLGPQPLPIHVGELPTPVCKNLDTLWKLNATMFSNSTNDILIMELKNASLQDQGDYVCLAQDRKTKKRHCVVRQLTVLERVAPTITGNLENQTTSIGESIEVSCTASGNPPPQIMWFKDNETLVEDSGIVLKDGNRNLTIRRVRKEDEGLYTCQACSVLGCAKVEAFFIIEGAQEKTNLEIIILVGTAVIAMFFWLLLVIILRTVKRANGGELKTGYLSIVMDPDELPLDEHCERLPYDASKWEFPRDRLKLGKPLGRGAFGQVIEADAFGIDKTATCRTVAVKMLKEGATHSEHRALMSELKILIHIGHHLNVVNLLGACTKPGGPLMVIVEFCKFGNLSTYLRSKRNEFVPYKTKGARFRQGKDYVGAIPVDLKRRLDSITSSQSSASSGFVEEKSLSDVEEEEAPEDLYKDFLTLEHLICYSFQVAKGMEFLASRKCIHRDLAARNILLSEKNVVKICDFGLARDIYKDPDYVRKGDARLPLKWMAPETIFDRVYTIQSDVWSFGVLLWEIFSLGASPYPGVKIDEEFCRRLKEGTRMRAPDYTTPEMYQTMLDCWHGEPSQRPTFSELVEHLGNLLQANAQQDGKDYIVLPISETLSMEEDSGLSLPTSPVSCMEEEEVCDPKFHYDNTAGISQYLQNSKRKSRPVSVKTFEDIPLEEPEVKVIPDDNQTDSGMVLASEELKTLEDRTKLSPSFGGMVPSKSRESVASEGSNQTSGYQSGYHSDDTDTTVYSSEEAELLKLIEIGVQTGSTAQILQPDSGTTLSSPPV

MOLM-13 [18] = assay: Induction of cell cycle arrest in human MOLM-13 cells assessed as accumulation of cells at G1 phase at 0.1 uM incubated for 48 hrs (reference value: 40.3%); assay type: functional
MOLM-13 [19] = assay: Induction of apoptosis in human MOLM-13 cells assessed as viable cells at 1 uM incubated for 48 hrs by Annexin V-FITC/PI staining based flow cytometry analysis (reference value: 91.9%); assay type: functional; conditions: read-out: Activity
[20] = Metabolic stability in human liver microsomes assessed as parent compound remaining at 1 uM measured after 60 mins in presence of NADPH regenerating system by LC-MS/MS analysis; assay type: ADME, Microsome; conditions: read-out: Stability
[21] = MRT (0 to t) in mouse at 5 mg/kg, iv; assay type: ADME, organism-based; conditions: in vivo
[22] = Antiproliferative activity against non-FLT3 expressing human TMD8 cells assessed as inhibition of cell growth measured after 3 days by celltiter-glo luminescent cell viability assay; assay type: functional, cell-based; conditions: TMD8, 72 h
MOLM-13 [23] = assay: Induction of apoptosis in human MOLM-13 cells assessed as late apoptotic cells at 0.3 uM incubated for 48 hrs by Annexin V-FITC/PI staining based flow cytometry analysis (reference value: 3.10%); assay type: functional
MOLM-13 [24] = assay: Induction of cell cycle arrest in human MOLM-13 cells assessed as accumulation of cells at G2 phase at 0.3 uM incubated for 48 hrs (reference value: […]); assay type: functional
[25] = Tmax in mouse at 5 mg/kg, iv; assay type: ADME, organism-based; conditions: in vivo
[26] = Tmax in mouse at 10 mg/kg, po; assay type: ADME, organism-based; conditions: in vivo
MOLM-13 [27] = assay: Induction of apoptosis in human MOLM-13 cells incubated for 48 hrs by Annexin V-FITC/PI staining based flow cytometry analysis; assay type: functional, cell-based; conditions: dose 0.1-1 µM
BaF3 [28] = assay: Antiproliferative activity against mouse BaF3 cells harbouring FLT3-ITD-D835V mutant assessed as inhibition of cell growth measured after 3 days by celltiter-glo luminescent cell viability assay; assay type: functional, cell-based; conditions: BaF3, 72 h
[29] = Metabolic stability in Beagle dog liver microsomes assessed as parent compound remaining at 1 uM measured after 60 mins by LC-MS/MS analysis; assay type: ADME, Canis lupus familiaris, Microsome; conditions: read-out: Stability
[30] = Metabolic stability in human liver microsomes assessed as half life at 1 uM measured up to 60 mins in presence of NADPH regenerating system by LC-MS/MS analysis; assay type: ADME, Microsome
[31] = Antiproliferative activity against human PBMC cells assessed as inhibition of cell growth measured after 3 days by celltiter-glo luminescent cell viability assay; assay type: toxicity, cell-based
[32] = target: CDK6/cyclin D3 (Homo sapiens) (UniProt P30281+Q00534); assay: Inhibition of human CDK6/cyclinD3 assessed as remaining activity at 1 uM by Eurofins-DiscoverX assay relative to control; assay type: protein-complex assay
[33] = Cmax in mouse at 5 mg/kg, iv; assay type: ADME, organism-based; conditions: in vivo
CYP2C19 = CYP2C19 (Homo sapiens, UniProt P33261); assay: Inhibition of CYP2C19 in human liver microsomes using S-mephenytoin as substrate at 10 uM incubated for 10 mins in presence of NADPH by LC-MS/MS analysis relative to control; assay type: ADME, Microsome; conditions: probe S-mephenytoin
Chain of CYP2C19 (P33261 whole entry): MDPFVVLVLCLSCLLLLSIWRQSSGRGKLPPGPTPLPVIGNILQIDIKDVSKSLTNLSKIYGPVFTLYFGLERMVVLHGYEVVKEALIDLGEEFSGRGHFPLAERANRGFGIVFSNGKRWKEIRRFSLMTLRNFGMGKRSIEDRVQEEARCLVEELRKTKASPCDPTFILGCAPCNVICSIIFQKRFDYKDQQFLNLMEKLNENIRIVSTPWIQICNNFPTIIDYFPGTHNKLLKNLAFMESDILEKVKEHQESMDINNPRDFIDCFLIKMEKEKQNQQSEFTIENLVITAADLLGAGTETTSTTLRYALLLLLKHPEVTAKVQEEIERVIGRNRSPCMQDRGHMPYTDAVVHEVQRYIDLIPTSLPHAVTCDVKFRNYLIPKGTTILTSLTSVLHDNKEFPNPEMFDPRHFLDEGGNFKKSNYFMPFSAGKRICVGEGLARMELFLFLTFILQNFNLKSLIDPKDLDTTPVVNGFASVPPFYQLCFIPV

[34] = target: CDK3/Cyclin E (Homo sapiens) (UniProt P24864+Q00526); assay: Inhibition of human CDK3/CyclinE at 1 uM by Eurofins-DiscoverX assay; assay type: protein-complex assay
Chain of CDK3/Cyclin E (Homo sapiens) (P24864 whole entry, looked up): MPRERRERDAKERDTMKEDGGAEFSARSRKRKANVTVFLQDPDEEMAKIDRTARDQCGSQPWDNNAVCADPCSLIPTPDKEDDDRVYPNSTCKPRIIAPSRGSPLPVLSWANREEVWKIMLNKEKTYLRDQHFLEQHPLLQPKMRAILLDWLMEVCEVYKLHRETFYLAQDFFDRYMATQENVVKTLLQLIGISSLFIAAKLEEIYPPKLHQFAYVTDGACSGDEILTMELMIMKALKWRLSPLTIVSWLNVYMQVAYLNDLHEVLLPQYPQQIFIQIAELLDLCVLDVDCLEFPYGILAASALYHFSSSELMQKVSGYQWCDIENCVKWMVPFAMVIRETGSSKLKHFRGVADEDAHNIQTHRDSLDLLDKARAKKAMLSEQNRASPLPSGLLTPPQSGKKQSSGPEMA
Chain of CDK3/Cyclin E (Homo sapiens) (Q00526 whole entry, looked up): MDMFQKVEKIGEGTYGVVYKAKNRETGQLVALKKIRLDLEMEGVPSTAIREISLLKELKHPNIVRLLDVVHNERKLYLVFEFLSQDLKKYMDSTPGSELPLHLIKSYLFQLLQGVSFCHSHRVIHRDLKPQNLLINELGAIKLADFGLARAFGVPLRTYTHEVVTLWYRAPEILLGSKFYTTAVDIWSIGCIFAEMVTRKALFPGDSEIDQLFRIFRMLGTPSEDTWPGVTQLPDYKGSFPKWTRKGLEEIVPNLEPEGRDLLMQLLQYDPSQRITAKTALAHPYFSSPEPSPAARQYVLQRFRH

IC50 (NCI-H441): > 30 µM
inhibition [1]: inactive
IC50 (MOLM-14): 0.51 µM
IC50 (BaF3 [3]): > 10 µM
microsomal CLint at 1 µM [4]: 11.8 µL/min/mg
inhibition [9]: inactive
remaining at 1 h, 1 µM [10]: 99.6%
IC50 (BaF3 [11]): > 10 µM
IC50 (BaF3 [12]): 0.19 µM
IC50 (Jurkat): > 30 µM
AUC(0-inf) [13]: 1430 ng·h/mL
remaining at 1 h, 1 µM [14]: 72.7%
IC50 (BaF3 [16]): 6.6 µM
IC50 [17]: 0.131 µM
remaining at 1 h, 1 µM [20]: 66.3%
MRT last [21]: 7.17 h
Tmax [25]: 0.25 h
Tmax [26]: 1.17 h
IC50 (BaF3 [28]): 7.8 µM
remaining at 1 h, 1 µM [29]: 103%
half-life at 1 µM [30]: 1.82 h
Activity [32]: 88%
Cmax [33]: 443 ng/mL
inhibition at 10 min, 10 µM (CYP2C19): 36.9%
inhibition [34]: inactive
Structure (SMILES): Cc1cc(=O)n(-c2cc(Cl)ccc2F)nc1C(=O)Nc1ccc(Oc2ccnc(NC(=O)N3CC(O)C3)c2)c(F)c1
Activity (MOLM-13 [2]): 3.37%
Activity (MOLM-13 [5]): 0.74%
Activity (MOLM-13 [6]): 0.068%
Activity (MOLM-13 [7]): 21.2%
Activity (MOLM-13 [8]): 5.69%
IC50 [15]: > 30 µM
Activity (MOLM-13 [18]): 50.1%
viability at 1 µM (MOLM-13 [19]): 33.5%
IC50 [22]: 22.3 µM
Activity (MOLM-13 [23]): 12.3%
Activity (MOLM-13 [24]): 8.51%
Activity (MOLM-13 [27]): Dose-dependent-effect
IC50 at 3 days [31]: > 30 µM
